These results are taken from PMC4366505, “Triggering HIV polyprotein processing by light using rapid photodegradation of a tight-binding protease inhibitor” (Nature Communications, 2015).

Usually Ki stands for a measure of affinity in units of concentration, obtained from inhibition or displacement. As usually defined, the CC50 is the concentration at which the toxic effect on the cells reaches its halfway point. Lower therefore signals harm at low concentration. A word on the EC50: it is the concentration that produces a half-maximal response.

Molecules are shown by their SMILES. Read-outs that look alike come from different tables or passages of the source.

Data set [1] addresses T1, purified recombinant HIV-1 PR (Human immunodeficiency virus type 1 group M subtype B, UniProt P04585).
T1 construct: This 99 amino acid long homodimeric aspartic PR; made in house; host or cells: Escherichia coli BL21(DE3) RIL
As to the kind of experiment: Inhibition of HIV-1 PR, spectrophotometric assay with chromogenic substrate (Morrison equation). It counts as biochemical. On the procedure:
Ki values were determined by spectrophotometric assay using purified recombinant HIV-1 PR and the chromogenic substrate KARVNleNphEaNle-NH2. Data were analyzed using the Morrison equation[35].

In data set [2] the target is T1, purified recombinant HIV-1 PR. As to the kind of experiment: Reactivation of inhibited HIV-1 PR by photolysis at 405 nm, cuvette set up. It counts as biochemical. To be noted: 8 nM PR. The method, then: (§1) To evaluate the efficacy of photodegradation, we analyzed the restoration of HIV-1 PR activity that had been inhibited by compound 1 (Fig. 3a) on irradiation at 405 nm. For irradiation, two lasers with outputs of 130 mW and 170 mW, respectively, were used in parallel. First, we tested a standard cuvette set up, in which 8 nM purified recombinant HIV-1 PR (final concentration of compound 1: 10 or 100 nM; Fig. 3b) in 1 ml cleavage buffer was irradiated. At the lower concentration, irradiation led to a significant restoration of enzyme activity (65% compared with the uninhibited enzyme reaction). […]
(§2) Figure 3 Kinetic analysis of HIV-1 PR reactivation by inhibitor photodegradation. […] The activity of purified recombinant HIV-1 PR was determined in vitro as described in the experimental section in the presence of the indicated inhibitor concentrations. […] The PR activity was then measured using a chromogenic substrate. […] Relative PR activity was determined as in b after 20-fold dilution into cleavage buffer using the same chromogenic substrate (for details, see Experimental section) and plotted against the flow rate of the sample through the capillary. […]
Cuvette set up. […] The enzyme activity (and thus the efficacy of photodegradation) was followed by the decrease in absorbance at 305 nm.

For data set [3] the target is unchanged. The experiment in a line: Reactivation of inhibited HIV-1 PR by photolysis at 405 nm, capillary set up. Format: biochemical. The method, then:
as §1, with “reaction). At the higher concentration of compound 1, however, PR reactivation was limited even after prolonged irradiation (only 35% activity after 5 min of irradiation).” for “reaction).”
as §2

The test system of data set [4] is HIV-1 Gag polyprotein processing. The experiment in a line: Inhibition of HIV-1 Gag polyprotein processing in particles from transfected HEK293T cells (immunoblot). The settings on record: Human immunodeficiency virus 1, HEK-293T; particles from HEK293T cells transfected with HIV-1 proviral plasmid; read-out: concentration giving ~50% reduction in Gag cleavage. It counts as cell-based. The method, then: PR-mediated cleavage of the Gag polyprotein yields the mature structural proteins and two small spacer peptides (Fig. 4a), and different rates of cleavage at individual sites result in the generation of characteristic processing intermediates. First, we assessed the inhibitory potency of compound 1 on HIV-1 Gag polyprotein processing in virus producing cells. For this, particles were purified from the supernatant of HEK293T cells transfected with an HIV-1 proviral plasmid and incubated in the presence of various concentrations of compound 1.
Figure 4 Inhibition of HIV-1 Gag processing by compound 1. (a) Schematic representation of the 55 kDa HIV-1 Gag polyprotein and its cleavage products. (b) Inhibition of HIV-1 Gag processing by compound 1. HIV-1 particles were produced in HEK293T cells in the presence of the indicated inhibitor concentrations. […]
Samples were separated by SDS–PAGE (17.5%; acrylamide:bisacrylamide 200:1), and proteins were transferred to a nitrocellulose membrane by semi-dry blotting. HIV-1 Gag-derived proteins were detected using rabbit polyclonal antiserum raised against HIV-1 CA, followed by fluorescently labelled goat-anti rabbit secondary antibody (LiCor). Quantification of anti-CA reactive bands was performed using an infrared imaging system (LiCor Odyssey) and Image Studio Lite software. Data were analyzed with GraphPad prism.

In data set [5] the test system is HIV-1 PR inside immature HIV-1 particles. As to the kind of experiment: Photoinduced Gag processing in immature HIV-1 particles produced with inhibitor (capillary irradiation, quantitative immunoblot). It counts as cell-based. On the procedure: Having established conditions for the inhibition of HIV-1 polyprotein processing by compound 1, we proceeded to prepare immature particles for in situ activation of PR. For this, virus particles were produced in transfected HEK293T cells grown in the presence of 2 μM inhibitor. The experimental set up is schematically illustrated in Fig. 5a. Particles collected from inhibitor-treated cells were either subjected to inhibitor wash-out by two subsequent ultracentrifugation steps (Fig. 5b), or only filtered to remove cell debris (Fig. 5c). In both cases, samples were then either irradiated (405 nm) in a glass capillary (Fig. 5b,c, bottom panels) or passed through the capillary in the absence of irradiation (Fig. 5b,c, top panels).
Figure 5 Photoinduced Gag processing in the context of the assembled virion. (a) Schematic illustration of the irradiation experiment to trigger HIV-1 maturation using photoinactivation of compound 1. HEK293T cells were transfected with a proviral HIV-1 plasmid and particles were produced in the presence of 2 μM compound 1. At 44 h post transfection, tissue culture supernatant was harvested and either subjected to ultracentrifugation (b,d) or used directly (c,e). In both cases, samples were then pumped through the capillary set up shown in Supplementary Fig. 4 either with or without ultraviolet irradiation. Subsequently, samples were incubated for various lengths of time. (b,c) Immunoblot analysis of Gag processing products. Samples were separated by SDS–PAGE, and products of Gag processing were detected by quantitative immunoblot (LiCor) using antiserum raised against recombinant HIV-1 CA. The figures show samples incubated for the indicated times without prior irradiation or following irradiation, respectively. Positions of Gag-derived proteins are indicated. (d,e) Quantitative analysis of the experiments shown in b or c, respectively. Anti-CA reactive bands from the immunoblots shown and from corresponding blots from irradiated mature control virus produced in the absence of inhibitor (not shown here) were quantified using Image Studio Light. The graphs show the proportion of mature CA relative to the sum of all anti-CA reactive bands in the respective lane. Filled triangles, irradiated control virus; open circles, inhibitor-treated virus, not irradiated; filled circles, inhibitor-treated virus, irradiated. Curves through data from inhibitor-treated samples represent fits to a single exponential equation. The results are representative of several independent experiments with a slight variation in the half-time of Gag polyprotein processing between 20 and 30 min. CA, capsid; MA, matrix.
HEK293T cells were seeded in six-well plates in high-glucose, phenol red-free DMEM supplemented with penicillin/streptomycin and 10% foetal calf serum. On the following day, cells were transfected with plasmid pCHIV[37] using polyethyleneimine according to standard procedures. A final concentration of 2 μM compound 1 or DMSO (vehicle) was added to the tissue culture medium at the time of transfection. At 44 h post transfection, tissue culture supernatants were harvested, adjusted to pH 6.0 using PR buffer (50 mM MES, pH 6.0, 150 mM NaCl, 2 mM DTT, 1 mM EDTA). Alternatively, supernatants were harvested, filtered, inhibitor was removed by two successive ultracentrifugation steps through a 20% sucrose cushion and the particle pellet was resuspended in PR buffer. […]
For orientation: In western blotting, separated proteins are transferred to a membrane and probed.

Data set [6] can be described thus: Solubility in culture conditions. It counts as physicochemical. The settings on record: 2 μM in 0.5% DMSO.
Data set [7] is described as follows: Cytotoxicity, XTT, MT-4 cells. To be noted: human. For orientation: Tetrazolium dyes change colour on reduction, which living cells bring about.
Experimental: (§3) Cytotoxicity was determined by incubating two-fold serial dilutions of 1 in triplicate in a 96-well plate
(§4) with 30,000 HEK293T cells/well seeded day ago in Dulbecco’s modified Eagle’s medium with L-
(§5) glutamine supplemented with 10% fetal calf serum (FCS, PAA), 100 U of penicillin/mL, 100 µg of
(§6) streptomycin/mL (Sigma-Aldrich) and with 30,000 MT-4 cells (obtained through the NIH AIDS
(§7) medium with 2 mM L-glutamine (PAA) supplemented with 10% FCS, 10 mM HEPES (Sigma-Aldrich),
(§8) 100 U of penicillin/ml, and 100 µg of streptomycin/mL. After 72 h of incubation at 37 °C, 5 % CO2,
(§9) tetrazolium salt XTT (Sigma-Aldrich) was added to the wells for 4 h and formation of colored
(§10) formazan solution was quantified using Victor X3 plate reader (Perkin Elmer). The percentage of
(§11) cytopathic effect (CPE) was plotted against the log10 1 concentrations and the 50 % cytotoxic
(§12) concentrations (CC50) were calculated using nonlinear regression analysis with GraphPad Prism ver. 6
(§13) 1NL4-3hRluc (HIV expressing human Renilla luciferase12) at multiplicity of infection 0.001 IU/ml for 1 h at […]
(§14) dilutions of 1. After 72 h incubation at 37 °C, 5 % CO2 HIV-1 activity was quantified by measuring
(§15) Renilla luciferase luminescence using the Renilla Luciferase Assay System (Promega) in Victor X3
(§16) plate reader. Percentage of inhibition of luminescence activity was plotted against the log10 1 […]
Data set [8] in a line: Cytotoxicity, XTT, HEK293T cells. The settings on record: human, HEK293T cells.
Experimental: as §3, §4, §5, §6, §7, §8, §9, §10, §11, §12, §13, §14, §15, §16
A further data set relates to HEK293T cells. As to the kind of experiment: Cytotoxicity, XTT, HEK293T cells. To be noted: 2 μM in 0.5% DMSO; cell line not given.
For data set [9], the system named is HIV-1 replication in MT-4 cells. The experiment in a line: Anti-HIV-1 activity in MT-4 cells (HIV-1 NL4-3 hRluc, Renilla luciferase). The settings on record: Human immunodeficiency virus 1, MT4, 72 h, read-out: EC50, inhibition of HIV-1 replication.
Experimental: as §3, §4, §5, §6, §7, §8, §9, §10, §11, §12, §13, §14, §15, §16

As for `CCN(CC)c1ccc2c(COC(=O)N[C@H](C(=O)N[C@@H](Cc3ccccc3)C[C@H](O)[C@H](Cc3ccccc3)NC(=O)OCc3cncs3)C(C)C)cc(=O)oc2c1` [compound 1], the Ki in [1] came out at 0.17 ± 0.02 nM. In data set [1] (RTV more potent), the “difference in Ki values for RTV and compound 1” value is on record as 10 fold. In addition, the “loss of potency on irradiation” value in data set [1] (irradiation with a 405 nm laser, inhibitor versus photolysis product) is on record as 4 orders of magnitude. Besides, the remaining activity at 0.01 µM in data set [2] (10 nM compound 1, 405 nm irradiation, read-out: restoration of enzyme activity compared with the uninhibited enzyme reaction) is 65%. The “PR activity after irradiation” value in [2] (100 nM compound 1, after 5 min of irradiation at 405 nm) is on record as 35%. Also, the “compound degraded by irradiation (estimate)” value in data set [3] (estimated from 75% restored PR activity) is listed as “up to 98%”. In addition, the “original PR activity recovered” value in [3] (flow rate 15 μl min^−1, inhibitor concentration 100 nM, 405 nm) is recorded as “up to 75%”. Moreover, the IC50 in data set [4] was roughly 500 nM. Also, the “Gag processing after irradiation” value in [5] (culture medium without inhibitor removal, irradiated at 405 nm) is “virtually complete Gag processing”. The “Gag processing without irradiation” value in [5] (culture medium without inhibitor removal, no irradiation, prolonged incubation) was “no induction of proteolysis”. Also, the “mature CA (proportion of all anti-CA reactive bands)” value in [5] (inhibitor wash-out by ultracentrifugation, then irradiated at 405 nm, within 15 min, particles produced with 2 μM) is ~ 30%. Moreover, in data set [5] (inhibitor wash-out, then irradiated, at 6 h of incubation), the “unprocessed or partially processed Gag products remaining” value was ~ 50%. Also, in data set [5] (particles produced with 2 μM inhibitor, irradiated at 405 nm in capillary), the “half-time of Gag processing after irradiation” value is recorded as ~ 20 min. Further, the solubility result in data set [6] is “soluble”. Further, the CC50 at 72 h in data set [7] is 7300 nM; in [8], greater than 50000 nM. Besides, in the data set with HEK293T cells, the “cytotoxicity at working concentration” value was “noncytotoxic”. Besides, the EC50 in data set [9] was found to be 8.1 nM.
For the molecule `CC(C)[C@H](N)C(=O)N[C@@H](Cc1ccccc1)C[C@H](O)[C@H](Cc1ccccc1)NC(=O)OCc1cncs1` [compound 2], the Ki in [1] (purified recombinant HIV-1 PR, chromogenic substrate KARVNleNphEaNle-NH2, read-out: Ki) was determined as 3200 ± 300 nM.
